Tests used:
Details in all cases: 72 h
U2OS [1] = experiment: cell viability relative to DMSO; higher = less toxic
Caco-2 [2] = experiment: as above
HepG2 [3] = experiment: as above
Calu-3 [4] = experiment: as above
Vero E6 [5] = experiment: as above
U2OS [6] = experiment: drug sensitivity score (DSS) for viability; higher = more toxic; extreme values may be limits of the assay
Caco-2 [7] = experiment: as above
HepG2 [8] = experiment: as above
Calu-3 [9] = experiment: as above
Vero E6 [10] = experiment: as above
U2OS [11] = experiment: relative viability EC50 (midpoint between 100% and the lowest measured viability); higher = less toxic
Caco-2 [12] = experiment: as above
HepG2 [13] = experiment: as above
Calu-3 [14] = experiment: as above
Vero E6 [15] = experiment: as above

| Structure (SMILES) | cell viability (U2OS [1]; 1 nM) [%] | cell viability (U2OS [1]; 10 nM) [%] | cell viability (U2OS [1]; 100 nM) [%] | cell viability (U2OS [1]; 1000 nM) [%] | cell viability (U2OS [1]; 10000 nM) [%] | cell viability (Caco-2 [2]; 1 nM) [%] | cell viability (Caco-2 [2]; 10 nM) [%] | cell viability (Caco-2 [2]; 100 nM) [%] | cell viability (Caco-2 [2]; 1000 nM) [%] | cell viability (Caco-2 [2]; 10000 nM) [%] | cell viability (HepG2 [3]; 1 nM) [%] | cell viability (HepG2 [3]; 10 nM) [%] | cell viability (HepG2 [3]; 100 nM) [%] | cell viability (HepG2 [3]; 1000 nM) [%] | cell viability (HepG2 [3]; 10000 nM) [%] | cell viability (Calu-3 [4]; 1 nM) [%] | cell viability (Calu-3 [4]; 10 nM) [%] | cell viability (Calu-3 [4]; 100 nM) [%] | cell viability (Calu-3 [4]; 1000 nM) [%] | cell viability (Calu-3 [4]; 10000 nM) [%] | cell viability (Vero E6 [5]; 1 nM) [%] | cell viability (Vero E6 [5]; 10 nM) [%] | cell viability (Vero E6 [5]; 100 nM) [%] | cell viability (Vero E6 [5]; 1000 nM) [%] | cell viability (Vero E6 [5]; 10000 nM) [%] | drug sensitivity score (U2OS [6]) | drug sensitivity score (Caco-2 [7]) | drug sensitivity score (HepG2 [8]) | drug sensitivity score (Calu-3 [9]) | drug sensitivity score (Vero E6 [10]) | relative viability EC50 (U2OS [11]) [µM] | relative viability EC50 (Caco-2 [12]) [µM] | relative viability EC50 (HepG2 [13]) [µM] | relative viability EC50 (Calu-3 [14]) [µM] | relative viability EC50 (Vero E6 [15]) [µM] |
| --- | --- | --- | --- | --- | --- | --- | --- | --- | --- | --- | --- | --- | --- | --- | --- | --- | --- | --- | --- | --- | --- | --- | --- | --- | --- | --- | --- | --- | --- | --- | --- | --- | --- | --- | --- |
| C#CCOC(=O)C1=CCCN(C)C1 [arecaidine-propargyl-ester] | 98 | 93.2 | 99.3 | 102 | 101 | 91.4 | 98.4 | 94.4 | 98 | 103 | 95.1 | 95.5 | 101 | 102 | 102 | 100 | 103 | 95.2 | 100 | 95.6 | 97.4 | 99 | 95 | 98.4 | 107 | 0 | 0 | 0 | 0 | 0 | > 10 | > 10 | > 10 | > 10 | > 10 |
| C[C@@H]1NC(=O)[C@@H]2CCCN2C(=O)[C@H](CC(N)=O)NC(=O)[C@@H]2CSSC[C@H](N)C(=O)N[C@H]3CSSC[C@H](NC1=O)C(=O)N[C@@H]([C@@H](C)O)C(=O)NCC(=O)N[C@H](C(=O)N[C@@H](Cc1ccc(O)cc1)C(=O)O)CSSC[C@H](NC(=O)[C@H](Cc1ccc(O)cc1)NC(=O)[C@H](CCC(=O)O)NC3=O)C(=O)N2 [linaclotide] | 101 | 101 | 97.3 | 100 | 95.8 | 98.8 | 98.9 | 104 | 110 | 95.1 | 93.6 | 93.8 | 102 | 88.9 | 94.2 | 90.3 | 91.2 | 83.9 | 107 | 97.2 | 100 | 106 | 104 | 91.1 | 103 | 0 | 0 | 0 | 0 | 0 | > 10 | > 10 | > 10 | > 10 | > 10 |
| CCOC(=O)c1ccc(N(C)c2csc(-c3ccccc3)n2)cc1 [neuropathiazol] | 101 | 97.2 | 98.8 | 99.5 | 99.3 | 92.9 | 94.1 | 80.2 | 97.3 | 104 | 86.2 | 97.3 | 103 | 107 | 93.2 | 92.4 | 97.2 | 108 | 110 | 97.3 | 108 | 103 | 96.2 | 101 | 96.3 | 0 | 0 | 0 | 0 | 0 | > 10 | > 10 | > 10 | > 10 | > 10 |

From the supplement of paper PMC13380429
